The subject of series [1] is Escherichia coli D21f2 with a truncated LPS barrier. The experiment in a line: MIC (microdilution) against E. coli D21f2. It is filed as cell-based. The procedure, abridged: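 Tested on E. coli JW5503 (ΔtolC, no TolC efflux) and D21f2 (defective LPS inner core, more permeable outer membrane) per EUCAST microdilution in Mueller-Hinton broth, twofold dilutions 50 to 0.39 µg/mL, 1:100-diluted overnight culture. 18 h at 37°C. MIC = lowest concentration with no growth by OD600.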
For orientation: Broth dilution looks for growth in wells or tubes with falling amounts of substance.

For series [2], the system named is sheep red blood cells. Nature of the series: Haemolysis assay. The format is cell-based. Conditions: if considered to cause haemolysis to red blood cells. As for the experimental part: The hemolysis assay was adapted from the study by Evans et al. ([65]). Briefly, sheep RBC 10% washed pooled cells in PBS (Rockland Immunochemicals, Limerick, PA, USA) were diluted 1:5 to give a final concentration of 2% RBCs in PBS. […] A non-treated control, 1% DMSO (vehicle control), and complete cell lysis control (Triton-X 2%) were included in each assay. After exposure samples were centrifuged at 4°C at 1,000 g for 15 min and 100 µL of supernatant transferred to a clean well in a 96-well, clear, flat-bottom plate (Corning Incorporated). Released hemoglobin was measured by absorption at 540 nm using a Spectramax M5 plate reader. The experiments were performed in quadruplicate. The percentage of hemolysis was calculated as follows:
Hemolysis=A540nm,testcondition−A540nm,DMSOcontrol/A540nm,TritonXControl−A540nm,DMSOcontrol

For series [3], the target named is T1, Hsp90α (Homo sapiens, UniProt P07900).
T1 construct: expression strains containing GST-Hsp90 N(9-236) plasmid (Addgene: 22481); host or cells: E. coli BL21(DE3)
The experiment in a line: Hsp90 fluorescence polarization assay (displacement of FITC-labeled geldanamycin). The settings on record: compound concentration that decreases geldanamycin binding by 50%. The procedure:
The compounds were tested for inhibition of HK autophosphorylation in vitro. Of the 24 derivatives, 6 inhibited in vitro autophosphorylation of E. coli EnvZ at a concentration of 2 mM. […] Each compound has similar IC50 values for PhoR and EnvZ, indicating good potential for polypharmacology. We discounted the notion that DPP-induced aggregation of HKs was the reason for inhibiting autophosphorylation using native gel protein electrophoresis of HK proteins with and without DPPs (data not shown). We also investigated if the four DPP inhibiting HK autophosphorylation would also bind to Hsp90α in a fluorescence polarization assay. In this assay, inhibitors were tested for their ability to displace FITC-labeled geldanamycin (a well-known Hsp90 inhibitor) from the ATP pocket ([40]). All the compounds tested displaced FITC-labeled geldanamycin with IC50s in the nM range (Table 2).
The Hsp90α […] domain was purified as described by Goode et al. ([57]). E. coli BL21(DE3) expression strains containing GST-Hsp90 N(9-236) plasmid (Addgene: 22481) were grown in 1 L LB media supplemented with 100 µg/mL ampicillin at 25°C and shaking (200 r.p.m.) to OD600 0.5, and protein expression was induced by the addition of 1 mM IPTG, and the culture was grown at 25°C and shaking (200 r.p.m.) overnight. Cells were then pelleted (4,000 g, 4°C), resuspended in 40 mL buffer A2 (50 mM Tris-HCl pH 8.0, 0.5 M NaCl, and 1 mM phenylmethanesulfonyl fluoride), sonicated (4°C, 5 min with pulses of 15 sec at intervals of 1 min), and centrifuged (11,000 g, 4°C, 60 min). Supernatant was passed through a 5-mL Glutathione Sepharose 4B (GE Healthcare) equilibrated with buffer A2 using an AKTA system (GE Healthcare). Column was washed using buffer A2, and a linear gradient of glutathione (0–0.25M) in buffer A2 was applied. Fractions containing Hsp90α were collected, mixed, and concentrated by ultrafiltration.
Competitive binding of inhibitors to Hsp90 was measured by fluorescence polarization assay as previously reported ([58]). Inhibitors were assayed in different concentrations (range 0–1,000 µM) in a Nunc black, low binding 384-well plate (Thermo Scientific). Each reaction was prepared in reaction mix (100 mM Tris-Cl, pH 7.4, 20 mM KCl, 6 mM MgCl2, 2 mM DTT, and 0.1 mg/mL bovine serum albumin) in a final volume of 50 µL containing 350 nM Hsp90 and 100 nM geldanamycin FITC labeled (BPS Bioscience, San Diego, CA, USA) and the inhibitor in the correspondent concentration. Blank control containing no enzyme and no geldanamycin, enzyme-positive control containing no inhibitor, and enzyme-negative control containing no Hsp90 were included. Fluorescence polarization was then measured using Tecan SPARK (Tecan, Grödig, Austria) at wavelengths λex = 485 nm and λem = 530 nm.
On the technique in general: In fluorescence polarisation assays a small probe gives low polarisation when free and higher when bound to something large.

Each structure is given as a SMILES string. In brackets after ≈: the same amount, converted by molar mass. Like-named read-outs stand apart in the source and are kept apart here. Some results are limits rather than exact numbers.

In general, MIC refers to the least concentration at which growth counts as inhibited. Consider `COc1ccc(-c2[nH]nc(C(F)(F)F)c2-c2ccccc2)c(O)c1` [DPP-2], for which the MIC in series [1] (read-out: MIC E coli D21f2) and in series [1] (read-out: MIC E. coli D21f2) was 50 µg/mL (≈ 150 µM) in each case. In addition, in series [2], the Haemolysis entry is given as “MILD”.
As usually defined, the IC50 is the concentration needed to halve the response being measured. A lower IC50 goes with higher potency. On to `Oc1ccc(-c2n[nH]c(C(F)(F)F)c2-c2ccc(Cl)cc2)c(O)c1` [DPP-5], for which the MIC in series [1] (read-out: MIC E coli D21f2) and in series [1] (read-out: MIC E. coli D21f2) was 50 µg/mL (≈ 141 µM) throughout. The molecule also displayed an IC50 in series [3] of 0.496 µM.
For the molecule `COc1ccc(-c2[nH]nc(C(F)(F)F)c2-c2ccc(Cl)cc2)c(O)c1` [DPP-6], the minimal inhibitory concentration (MIC) in series [1] (read-out: MIC E coli D21f2) and in series [1] (read-out: MIC E. coli D21f2) was 25 µg/mL (≈ 67.8 µM) each time. This molecule came in with an IC50 in series [3] of 0.798 µM. The Haemolysis entry in series [2] is “YES”.
Take `CCOc1ccc(-c2[nH]nc(C(F)(F)F)c2-c2ccc(Cl)cc2)c(O)c1` [DPP-7]: the minimal inhibitory concentration (MIC) in series [1] (read-out: MIC E coli D21f2) and in series [1] (read-out: MIC E. coli D21f2) was 25 µg/mL (≈ 65.3 µM) throughout. In series [2], the Haemolysis entry was “YES”.
Consider `COc1ccc(-c2c(C(F)(F)F)n[nH]c2-c2ccc(O)cc2O)cc1` [DPP-12], for which the minimum inhibitory concentration (MIC) in series [1] (read-out: MIC E coli D21f2) was above 50 µg/mL; in series [1] (read-out: MIC E. coli D21f2) it was above 250 µg/mL. In series [3], the half-inhibitory concentration (IC50) was 0.574 µM.
On the same counts, the results for `COc1ccc(-c2c(C(F)(F)F)n[nH]c2-c2ccc(OC)cc2O)cc1` [DPP-13] are above 50 µg/mL, above 250 µg/mL and 0.838 µM.

These data come from publication PMC11302729, “Repurposing Hsp90 inhibitors as antimicrobials targeting two-component systems identifies compounds leading to loss of bacterial membrane integrity” (Microbiology Spectrum, 2024).
